According to PubChem BioAssay (NCI):
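Each compound was tested at five concentrations against cells in 96-well plates for 48 hours. GI50 is the concentration that inhibits growth by half. At the TGI there is no net growth.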

Tests used:
Experiment in all cases: growth of human tumour cells (NCI), 48 h
786-0 renal = test system: 786-0 renal
A498 renal = test system: A498 renal
A549 NSCLC = test system: A549 NSCLC
ACHN renal = test system: ACHN renal
BT-549 breast = test system: BT-549 breast
CAKI-1 renal = test system: CAKI-1 renal
CCRF-CEM leukemia = test system: CCRF-CEM leukemia
DU-145 prostate = test system: DU-145 prostate
EKVX NSCLC = test system: EKVX NSCLC
HCC-2998 colon = test system: HCC-2998 colon
HCT-116 colon = test system: HCT-116 colon
HCT-15 colon = test system: HCT-15 colon
HL-60(TB) leukemia = test system: HL-60(TB) leukemia
HOP-92 NSCLC = test system: HOP-92 NSCLC
HS 578T breast = test system: HS 578T breast
HT29 colon = test system: HT29 colon
IGROV1 ovarian = test system: IGROV1 ovarian
K-562 leukemia = test system: K-562 leukemia
KM12 colon = test system: KM12 colon
LOX IMVI melanoma = test system: LOX IMVI melanoma
M14 melanoma = test system: M14 melanoma
MALME-3M melanoma = test system: MALME-3M melanoma
MCF7 breast = test system: MCF7 breast
MDA-MB-231 breast = test system: MDA-MB-231 breast
MDA-MB-435 = test system: MDA-MB-435
MOLT-4 leukemia = test system: MOLT-4 leukemia
NCI-H226 lung = test system: NCI-H226 lung
NCI-H23 lung = test system: NCI-H23 lung
NCI-H460 lung = test system: NCI-H460 lung
NCI-H522 lung = test system: NCI-H522 lung
NCI/ADR-RES ovarian = test system: NCI/ADR-RES ovarian
OVCAR-3 ovarian = test system: OVCAR-3 ovarian
OVCAR-4 ovarian = test system: OVCAR-4 ovarian
OVCAR-5 ovarian = test system: OVCAR-5 ovarian
OVCAR-8 ovarian = test system: OVCAR-8 ovarian
PC-3 prostate = test system: PC-3 prostate
RPMI-8226 leukemia = test system: RPMI-8226 leukemia
RXF 393 renal = test system: RXF 393 renal
SF-268 CNS = test system: SF-268 CNS
SF-295 CNS = test system: SF-295 CNS
SF-539 CNS = test system: SF-539 CNS
SK-MEL-2 melanoma = test system: SK-MEL-2 melanoma
SK-MEL-28 melanoma = test system: SK-MEL-28 melanoma
SK-MEL-5 melanoma = test system: SK-MEL-5 melanoma
SK-OV-3 ovarian = test system: SK-OV-3 ovarian
SN12C renal = test system: SN12C renal
SNB-19 CNS = test system: SNB-19 CNS
SNB-75 CNS = test system: SNB-75 CNS
SR leukemia = test system: SR leukemia
SW-620 colon = test system: SW-620 colon
T-47D breast = test system: T-47D breast
TK-10 renal = test system: TK-10 renal
UACC-257 melanoma = test system: UACC-257 melanoma
UACC-62 melanoma = test system: UACC-62 melanoma
UO-31 renal = test system: UO-31 renal

CCN(CC)CC(O)CNc1c2ccc([N+](=O)[O-])cc2nc2cc(OC)c(OC)cc12 (stereo not given)
GI50 (786-0 renal): 659 nM | TGI (786-0 renal): 3880 nM | GI50 (A498 renal): 1360 nM | TGI (A498 renal): 3080 nM | GI50 (A549 NSCLC): 262 nM | TGI (A549 NSCLC): 854 nM | GI50 (ACHN renal): 396 nM | TGI (ACHN renal): 2360 nM | GI50 (BT-549 breast): 1810 nM | TGI (BT-549 breast): 3850 nM | GI50 (CAKI-1 renal): 4500 nM | TGI (CAKI-1 renal): 16600 nM | GI50 (CCRF-CEM leukemia): 517 nM | TGI (CCRF-CEM leukemia): 10400 nM | GI50 (DU-145 prostate): 304 nM | TGI (DU-145 prostate): 1300 nM | GI50 (EKVX NSCLC): 336 nM | TGI (EKVX NSCLC): 1850 nM | GI50 (HCC-2998 colon): 240 nM | TGI (HCC-2998 colon): 576 nM | GI50 (HCT-116 colon): 200 nM | TGI (HCT-116 colon): 636 nM | GI50 (HCT-15 colon): 854 nM | TGI (HCT-15 colon): 3600 nM | GI50 (HL-60(TB) leukemia): 2060 nM | TGI (HL-60(TB) leukemia): 6810 nM | GI50 (HOP-92 NSCLC): 164 nM | TGI (HOP-92 NSCLC): 642 nM | GI50 (HS 578T breast): 728 nM | TGI (HS 578T breast): 5090 nM | GI50 (HT29 colon): 258 nM | TGI (HT29 colon): 1200 nM | GI50 (IGROV1 ovarian): 305 nM | TGI (IGROV1 ovarian): 1510 nM | GI50 (K-562 leukemia): 396 nM | TGI (K-562 leukemia): 10900 nM | GI50 (KM12 colon): 343 nM | TGI (KM12 colon): 1370 nM | GI50 (LOX IMVI melanoma): 238 nM | TGI (LOX IMVI melanoma): 662 nM | GI50 (M14 melanoma): 368 nM | TGI (M14 melanoma): 1550 nM | GI50 (MALME-3M melanoma): 249 nM | TGI (MALME-3M melanoma): 573 nM | GI50 (MCF7 breast): 53.4 nM | TGI (MCF7 breast): 761 nM | GI50 (MDA-MB-231 breast): 244 nM | TGI (MDA-MB-231 breast): 883 nM | GI50 (MDA-MB-435): 374 nM | TGI (MDA-MB-435): 1420 nM | GI50 (MOLT-4 leukemia): 376 nM | TGI (MOLT-4 leukemia): 12400 nM | GI50 (NCI-H226 lung): 392 nM | TGI (NCI-H226 lung): 2010 nM | GI50 (NCI-H23 lung): 220 nM | TGI (NCI-H23 lung): 705 nM | GI50 (NCI-H460 lung): 185 nM | TGI (NCI-H460 lung): 669 nM | GI50 (NCI-H522 lung): 267 nM | TGI (NCI-H522 lung): 823 nM | GI50 (NCI/ADR-RES ovarian): 4630 nM | TGI (NCI/ADR-RES ovarian): 18700 nM | GI50 (OVCAR-3 ovarian): 207 nM | TGI (OVCAR-3 ovarian): 543 nM | GI50 (OVCAR-4 ovarian): 162 nM | TGI (OVCAR-4 ovarian): 574 nM | GI50 (OVCAR-5 ovarian): 306 nM | TGI (OVCAR-5 ovarian): 2550 nM | GI50 (OVCAR-8 ovarian): 550 nM | TGI (OVCAR-8 ovarian): 11000 nM | GI50 (PC-3 prostate): 329 nM | TGI (PC-3 prostate): 1050 nM | GI50 (RPMI-8226 leukemia): 359 nM | TGI (RPMI-8226 leukemia): 2140 nM | GI50 (RXF 393 renal): 469 nM | TGI (RXF 393 renal): 1860 nM | GI50 (SF-268 CNS): 293 nM | TGI (SF-268 CNS): 1340 nM | GI50 (SF-295 CNS): 410 nM | TGI (SF-295 CNS): 2060 nM | GI50 (SF-539 CNS): 350 nM | TGI (SF-539 CNS): 1450 nM | GI50 (SK-MEL-2 melanoma): 256 nM | TGI (SK-MEL-2 melanoma): 659 nM | GI50 (SK-MEL-28 melanoma): 470 nM | TGI (SK-MEL-28 melanoma): 1930 nM | GI50 (SK-MEL-5 melanoma): 273 nM | TGI (SK-MEL-5 melanoma): 769 nM | GI50 (SK-OV-3 ovarian): 535 nM | TGI (SK-OV-3 ovarian): 2840 nM | GI50 (SN12C renal): 335 nM | TGI (SN12C renal): 2790 nM | GI50 (SNB-19 CNS): 240 nM | TGI (SNB-19 CNS): 1310 nM | GI50 (SNB-75 CNS): 488 nM | TGI (SNB-75 CNS): 1880 nM | GI50 (SR leukemia): 303 nM | TGI (SR leukemia): 11100 nM | GI50 (SW-620 colon): 289 nM | TGI (SW-620 colon): 2370 nM | GI50 (T-47D breast): 369 nM | TGI (T-47D breast): 1620 nM | GI50 (TK-10 renal): 1940 nM | TGI (TK-10 renal): 9790 nM | GI50 (UACC-257 melanoma): 1450 nM | TGI (UACC-257 melanoma): 3830 nM | GI50 (UACC-62 melanoma): 453 nM | TGI (UACC-62 melanoma): 1800 nM | GI50 (UO-31 renal): 2210 nM | TGI (UO-31 renal): 12900 nM
